Like-named read-outs stand apart in the source and are kept apart here.
Legend:
[1] = rats orally; cited from earlier work
[2] = system: T47D breast cancer tissue cells; assay: MTS breast cancer mitochondrial activity assay; assay type: cell-based; conditions: for MTS suppression ratio (mean OD treated / mean OD control), 24 h: culture time 24 h; for MTS suppression ratio (mean OD treated / mean OD control), 24 h / MTS suppression ratio (mean OD treated / mean OD control), 48 h: 1.0 = no effect; for MTS suppression ratio (mean OD treated / mean OD control), 48 h: culture time 48 h
Protocol: In addition to and equal to the effects of high HLB surfactants for comparative testing. These comparative studies were performed and results are reported in the above table. Metabolism was comparatively measured with controls and other extracts as to the reduction of mitochondrial activity, (MTS). This compound is a substrate for the mitochondrial enzymes—and is reduced to a blue formazan product.
In the first experiments—The extracted therapeutic test agents were derived from specified tissue. Water extracts of the crushed tissue, were also prepared. For the later experiments, specific varieties of extracts were prepared and examined: Cells were obtained from American Type Culture Collection (ATCC, Washington, D.C.) and were cultured as recommended by ATCC. Experiments were performed in 96 well microtiter plates. Each well contained 1.0×10^4 cells suspended in a total volume of […]. Test wells contained the designated amount of extract in cell culture medium. Control wells contained the same amount of extract solvent in medium. Plates were incubated in an atmosphere of 5% C02 for 24 or 48 hours with extract or solvent. At this time, […] were added to each well and incubation was continued for an additional 4 hours after which time the optical density (OD) at […] of each well was recorded. In each experiment, each sample was assayed in triplicate and the mean optical density (OD) for the three wells containing the same culture was calculated.
Data are presented as suppression ratios. The suppression ratio defined here as the mean optical density (OD) for the wells containing extract divided by the mean optical density (OD) for the control wells.
The purpose of the work was to determine which therapeutic agent extracts (further separated by chromatography) explored through this methodology for anti-cancer activity. The data presented here represents semi-quantitative anti-cancer screening tests. Extracts with ratios in the range 0.51-0.74 were considered moderately active and therefore appropriate for considered use along with preventive anti-cancer treatment and active anti-cancer treatment. In co-use with anti-cancer treatment and radiation treatment, may lessen the dose and the side effects of these current therapeutic agents. Extracts with metabolism suppression ratios less than or equal to 0.5 represented a suppression of metabolism of at least 50% or greater than that of the controls and were considered definitely active potential anti-cancer agents, as was the case of High HLB Tween 80 with ethylene maturation apoptosis promoting factor with a 76% suppression of mitochondrial metabolism of cancer cells.

[3] = Circulation, blood viscosity and sedimentation rate with intermediate HLB lipid; assay type: in vivo; conditions: HLB 8 to 11
Text: The amount of surface-active polar lipid to include in the composition can be determined by viscosity measurements. Tissue concentration can be measured by viscosity (as used in blood serum which normally is 1.12 to 1.22 centipoise with upper limit of three). In the case of the intermediate HLB 8 to 11 (as exemplified by PC phosphatidylcholine when so used) circulation is improved 25% however there is no change in viscosity or the red blood cell sedimentation rate at these HLB ranges because of the fact that biophysical functional effects is upon the cell membrane. With its use the red cell membrane becomes more plastic, and is made more pliable thereby enhancing circulation and oxygenation.
Component No. 2 contains self-vesiculating essence of HLB 8 to 11 or 12, ideally 10 to 11, cell membrane forming and repairing liquid crystal phosphatidylcholine (PC), thereby increasing pliability of the red cell, blood vessel and endothelial membrane enhancing circulatory function by 25%. Component No. 2 optionally contains high HLB surfactants with packing parameters that not only enhance biologic function and efficiency of protein enzymes and their substrate but also promotes protein refolding and thereby normalizing biologic function. This helps to normalize the biologic function of disease promoting protein structures of Alzheimer's disease, Parkinson's disease, and Mad Cow disease. […]

[4] = rats and mice; cited from earlier work

| Compound | LD 50 [1] [mg per kilogram] | MTS suppression ratio (mean OD treated / mean OD control), 24 h ([2]; T47D cells) | MTS suppression ratio (mean OD treated / mean OD control), 48 h ([2]; T47D cells) | improvement of circulation / circulatory function [3] [%] | LD 50 [4] [ml per kilogram] | suppression of mitochondrial metabolism of cancer cells [2] [%] | % normalization of Breast cancer cells ([2]; T47D cells) [%] |
| --- | --- | --- | --- | --- | --- | --- | --- |
| CCCCCCCCCCCCOS(=O)(=O)[O-].[Na+] [sodium lauryl sulfate] | 1288 | – | – | – | – | – | – |
| phosphatidylcholine [PC] | – | 0.92 | 0.98 | 25 | – | – | – |
| polyglycerol polyricinolate [PGPR] | – | – | – | – | 7.5 | – | – |
| polyoxyethylene Sorbitan Monooleate [Tween 80] | – | 0.48 | 0.24 | – | 7.5 | 76 | 76 |

Source: US20050260181A1, “Compositions and methods for tissue repair” (Immunopath Profile, Inc., priority 2004, published 2005)
